Like-named read-outs stand apart in the source and are kept apart here.
Target: T1, porcine pancreatic lipase (Sus scrofa, UniProt P00591)
T1 construct: gene PNLIP
T1 sequence (P00591 1-450): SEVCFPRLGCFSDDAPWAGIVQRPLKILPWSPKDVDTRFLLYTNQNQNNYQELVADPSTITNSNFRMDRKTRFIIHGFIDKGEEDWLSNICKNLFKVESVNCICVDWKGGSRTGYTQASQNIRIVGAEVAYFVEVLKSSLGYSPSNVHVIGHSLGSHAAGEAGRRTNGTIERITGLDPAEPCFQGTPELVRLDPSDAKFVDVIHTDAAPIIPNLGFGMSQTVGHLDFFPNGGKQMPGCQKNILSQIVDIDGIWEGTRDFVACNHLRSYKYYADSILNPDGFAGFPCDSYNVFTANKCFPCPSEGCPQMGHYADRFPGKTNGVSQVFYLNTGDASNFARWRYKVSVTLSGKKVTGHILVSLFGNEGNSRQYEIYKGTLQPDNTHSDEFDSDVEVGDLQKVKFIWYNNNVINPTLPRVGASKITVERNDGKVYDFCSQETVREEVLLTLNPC
Test: colorimetric lipase activity assay (Lipase Kit S, BLAB/DTNB, […] nm) with porcine pancreas lipase Type II
Assay type: biochemical

SMILES | IC50 [µM] | IC50 (read-out: IC50) [µM]
CCCCC/C=C\C/C=C\CCCCCCCC(=O)O [linoleic acid] | 82.4 | –
CCCCCCCC/C=C\CCCCCCCC(=O)O [oleic acid] | – | 41.4
